Assay results from EP0973746B1, “SUBSTITUTED 3-CYANO QUINOLINES” (Wyeth Holdings Corporation, priority 1997, dated 1998).
pIC50: −log10 of the molar value. In brackets after ≈: the same amount, converted by molar mass. Several values for one entry are separate records, joined by “and”; a condition that tells them apart may be missing. Equal entries are not always repeated. Where two headings read alike, the source gives them in different places.

Columns and labels:
SW620 = assay: Inhibition of cancer cell growth as measured by cell number, SW620; format: cell-based, human; settings: Homo sapiens, SW-620, 48 h, read-out: IC50 SW620, cell number, Sulforhodamine B, 48 hours exposure;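 also: SW620 was included as a cell line with little or no EGFR or HER2/neu expression, in contrast to receptor-overexpressing lines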
From the text: (§1) The cell lines were chosen since they overexpressed epidermal growth factor receptor (EGFR) (i.e. A431) or HER2/neu (SKBR3), or had little to no expression of the these receptors (SW620, LOX, MCF7).

A431 [1] = assay: Inhibition of cell growth by incorporation of [3H]-thymidine, A431; format: cell-based, human; settings: Homo sapiens, A-431, read-out: IC50 A431
HL60 = assay: Inhibition of cancer cell growth as measured by cell number, HL60; format: cell-based; settings: Homo sapiens, HL-60, 48 h, read-out: IC50 HL60
[2] = molecular target: epidermal growth factor receptor kinase (Homo sapiens, UniProt P00533); assay: biochemical
Sequence of epidermal growth factor receptor kinase (P00533 25-1210): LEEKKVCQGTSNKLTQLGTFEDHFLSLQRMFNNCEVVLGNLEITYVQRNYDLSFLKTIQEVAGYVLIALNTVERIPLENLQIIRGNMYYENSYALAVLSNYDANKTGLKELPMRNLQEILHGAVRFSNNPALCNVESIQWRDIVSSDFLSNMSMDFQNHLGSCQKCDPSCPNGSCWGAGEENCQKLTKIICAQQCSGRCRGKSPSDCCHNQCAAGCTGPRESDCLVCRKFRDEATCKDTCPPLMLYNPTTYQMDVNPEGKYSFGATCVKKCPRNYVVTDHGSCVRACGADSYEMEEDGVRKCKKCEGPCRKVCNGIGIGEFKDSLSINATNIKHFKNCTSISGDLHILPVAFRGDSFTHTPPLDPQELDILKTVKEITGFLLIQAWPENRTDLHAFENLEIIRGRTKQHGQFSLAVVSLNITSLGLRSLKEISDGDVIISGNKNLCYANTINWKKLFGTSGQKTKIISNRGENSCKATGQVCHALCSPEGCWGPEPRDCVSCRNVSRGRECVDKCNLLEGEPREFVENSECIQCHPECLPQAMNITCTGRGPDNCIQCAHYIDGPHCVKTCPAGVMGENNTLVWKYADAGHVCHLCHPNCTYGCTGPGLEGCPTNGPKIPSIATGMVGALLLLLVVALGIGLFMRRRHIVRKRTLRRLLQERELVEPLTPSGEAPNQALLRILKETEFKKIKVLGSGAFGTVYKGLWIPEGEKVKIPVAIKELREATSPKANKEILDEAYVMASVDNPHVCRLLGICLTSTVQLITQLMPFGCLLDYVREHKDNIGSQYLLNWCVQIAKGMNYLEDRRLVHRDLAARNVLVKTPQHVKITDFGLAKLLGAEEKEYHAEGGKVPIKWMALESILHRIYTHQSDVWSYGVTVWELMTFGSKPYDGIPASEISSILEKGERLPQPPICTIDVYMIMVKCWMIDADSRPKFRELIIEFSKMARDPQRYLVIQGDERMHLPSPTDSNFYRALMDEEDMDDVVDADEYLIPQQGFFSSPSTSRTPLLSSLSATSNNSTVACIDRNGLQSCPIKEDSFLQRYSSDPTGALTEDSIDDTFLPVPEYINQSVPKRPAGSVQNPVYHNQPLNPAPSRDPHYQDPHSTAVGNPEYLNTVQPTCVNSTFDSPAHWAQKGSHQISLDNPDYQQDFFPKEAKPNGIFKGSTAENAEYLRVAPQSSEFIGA
Method: The enzyme was obtained as a membrane extract of A431 cells (American Type Culture Collection, Rockville, MD). A431 cells were grown in T175 flasks to 80% confluency. The cells were washed twice with phosphate buffered saline (PBS) without Ca^2+. Flasks were rotated for 1.5 hours in 20 ml PBS with 1.0 mM ethylenediaminetetraacetic acid (EDTA) at room temperature and centrifuged at 600g for 10 minutes. The cells were solubilized in 1 ml per 5 x 10^6 cells of cold lysis buffer {10mM 4-(2-hydroxyethyl)-1-piperazineethane-sulfonic acid (HEPES), pH 7.6, 10 mM NaCl, 2mM EDTA, 1mM phenylmethyl-sulfonyl-fluoride (PMSF), 10 mg/ml aprotinin, 10 mg/ml leupeptin, 0.1 mM sodium orthovanadate} in a Dounce homogenizer with 10 strokes on ice. The lysate was centrifuged at 600g for 10 minutes first to clear cell debris and the supernatant further centrifuged at 100,000 g for 30 min at 4°C. The membrane pellet was suspended in 1.5 ml HNG buffer (50 mM HEPES, pH 7.6, 125 mM NaCl, 10% glycerol). The membrane extract was divided into aliquots, immediately frozen in liquid nitrogen and stored at -70°C.
Compounds to be evaluated were made into 10 mg/ml stock solutions in 100% dimethylsulfoxide (DMSO). Prior to experiment, stock solutions were diluted to 500 mM with buffer (30 mM Hepes pH 7.4) and then serially diluted to the desired concentration.
An aliquot of the A431 membrane extract (10 mg/ml) was diluted in 30 mM HEPES (pH 7.4) to give a protein concentration of 50 ug/ml. […] To this was added the ^33p-ATP (10 mCi/ml) diluted 1:10 in assay buffer along with the substrate peptide at a concentration of 0.5 mM (control reactions get no test compound) and the reaction was allowed to proceed for 30 min at 30°C. The reaction was stopped with 10% TCA and left on ice for at least 10 min after which tubes were microcentrifuged at full speed for 15 min. The a portion of the supernatants were spotted on P81 phosphocellulose discs and washed twice in 1% acetic acid then water for 5 min each followed by scintillation counting. […] The % inhibition of the test compound was determined for at least three different concentrations and the IC50 value was evaluated from the dose response curve. […] CPM(control) is in units of counts per minute and was a number expressing the amount of radiolabeled ATP (g-^33P) incorporated into the RR-SRC peptide substrate by the enzyme after 30 minutes at 30°C in the absence of test compound as measured by liquid scintillation counting. The CPM values were corrected for the background counts produced by ATP in the absence of the enzymatic reaction. The IC50 values reported in TABLE 1 are averages of the number of tests conducted.

CCL228 = assay: Inhibition of cancer cell growth as measured by cell number, CCL228; format: cell-based; settings: Homo sapiens, 48 h, read-out: IC50 CCL228
MIP = assay: Inhibition of cancer cell growth as measured by cell number, MIP; format: cell-based; settings: Homo sapiens; cell number, Sulforhodamine B, 48 hours exposure; Table 4; read-out: IC50 MIP
[3] = test system: human epidermoid tumors (A431); assay: In vivo inhibition of the growth of human epidermoid tumors (A431); settings: for S/T = No. Survivors/No. Treated: Day +28 post tumor staging; for tumor growth was inhibited: 100 mg/kg administered i.p. during days 1-10
How it was run: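 Female BALB/c nu/nu mice from Charles River were injected subcutaneously with 5 X 10^6 human epidermoid (A431) tumor cells. Once tumors weighed 100 to 150 mg, animals were randomized into treatment groups on day zero, and untreated controls were included. Tumor mass, calculated as (length X width^2)/2, was measured every 7 days for 28 days after staging. Relative growth was mean mass on days 7, 14, 21 and 28 divided by the day-zero mean.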

[4] = molecular target: recombinant human MEK 1 (MAPKK) and recombinant human ERK2 (MAPK); assay: Mitogen Activated Protein Kinase (MAPK) assay, two component coupled MEK 1 / ERK2; format: biochemical; settings: separate entries for the same compound = evaluated more than one time;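 also: MEK 1-activated ERK2 phosphorylates MBP or Myc peptide with 33P-ATP, filter capture and scintillation counting, inhibitor preincubated with ERK2 30 min at 0 °C, inhibition relative to uninhibited control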
A2780DDP = assay: Inhibition of cancer cell growth as measured by cell number, A2780DDP; format: cell-based; settings: Homo sapiens, 48 h, read-out: IC50 A2780DDP
A27805 = assay: Inhibition of cancer cell growth as measured by cell number, A27805; format: cell-based; settings: Homo sapiens, 48 h, read-out: IC50 A27805
HTB161 = assay: Inhibition of cancer cell growth as measured by cell number, HTB161; format: cell-based; settings: Homo sapiens, 48 h, read-out: IC50 HTB161
NEC = assay: Inhibition of cancer cell growth as measured by cell number, NEC; format: cell-based; settings: Homo sapiens, 48 h, read-out: IC50 NEC
CX1 = assay: Inhibition of cancer cell growth as measured by cell number, CX1; format: cell-based; settings: Homo sapiens, CX-1, 48 h, read-out: IC50 CX1
MCF7 = assay: Inhibition of cancer cell growth as measured by cell number, MCF7; format: cell-based, human; settings: Homo sapiens, MCF7, 48 h, read-out: IC50 MCF7, cell number, Sulforhodamine B, 48 hours exposure;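 also: MCF7 was included as a line with little or no EGFR or HER2/neu expression, in contrast to the receptor-overexpressing lines of the panel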
From the text: as §1

A549 = assay: Inhibition of cancer cell growth as measured by cell number, A549; format: cell-based; settings: Homo sapiens, A549, 48 h, read-out: IC50 A549
LX1 = assay: Inhibition of cancer cell growth as measured by cell number, LX1; format: cell-based; settings: Homo sapiens, LX-1, 48 h, read-out: IC50 LX1
SKBR3 = assay: Inhibition of cancer cell growth as measured by cell number, SKBR3; format: cell-based, human; settings: Homo sapiens, SK-BR-3, 48 h, read-out: IC50 SKBR3, cell number, Sulforhodamine B, 48 hours exposure;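 also: SK-BR-3 cells were selected as a line overexpressing HER2/neu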
From the text: as §1

LS174T = assay: Inhibition of cancer cell growth as measured by cell number, LS174T; format: cell-based; settings: Homo sapiens, 48 h, read-out: IC50 LS174T
SW948 = assay: Inhibition of cancer cell growth as measured by cell number, SW948; format: cell-based; settings: Homo sapiens, SW948, 48 h, read-out: IC50 SW948
LNCAP = assay: Inhibition of cancer cell growth as measured by cell number, LNCAP; format: cell-based; settings: Homo sapiens, 48 h, read-out: IC50 LNCAP
CCRF-CFM = assay: Inhibition of cancer cell growth as measured by cell number, CCRF-CFM; format: cell-based; settings: Homo sapiens, 48 h, read-out: IC50 CCRF-CFM
T47D = assay: Inhibition of cancer cell growth as measured by cell number, T47D; format: cell-based; settings: Homo sapiens, 48 h, read-out: IC50 T47D
HCT15 = assay: Inhibition of cancer cell growth as measured by cell number, HCT15; format: cell-based; settings: Homo sapiens, HCT-15, 48 h, read-out: IC50 HCT15
LOX = assay: Inhibition of cancer cell growth as measured by cell number, LOX; format: cell-based, human; settings: Homo sapiens, LOX, 48 h, read-out: IC50 LOX, cell number, Sulforhodamine B, 48 hours exposure;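 also: LOX cells served as a line with low or absent EGFR and HER2/neu expression, in contrast to receptor-overexpressing lines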
From the text: as §1

DU145 = assay: Inhibition of cancer cell growth as measured by cell number, DU145; format: cell-based; settings: Homo sapiens, DU-145, 48 h, read-out: IC50 DU145
NHEK = assay: Inhibition of cell growth by incorporation of [3H]-thymidine, NHEK; format: cell-based, human; settings: Homo sapiens, read-out: IC50 NHEK
Method: Representative compounds of this invention were evaluated for their ability to inhibit the growth of the cell lines described below in vitro. The inhibition is quantitated by measuring the decrease in the incorporation of radio-labeled thymidine when the cells are grown in the presence of the inhibitor. […] Cells were routinely grown in a humidified incubator in 5% CO2 in air.
Cells were seeded at 10,000 cells/well in 96 well plates in complete media and allowed to grow to log phase. At this stage the complete media was replaced with media containing 0.5% FBS (for cells growing in 10% FBS) or media lacking epidermal growth factor (EGF) (for cells growing in serum free media). […] Media with test compound was then removed and complete media was added back. The cells were allowed to grow for 18 hours. This is followed by incubation in [^3H]thymidine (1mCi/ml in serum/EGF media) for 4 hours. Cells were lysed in 0.5 M NaOH for at least 30 min at 37°C and radioactivity analyzed.
The % inhibition of the compound evaluated was determined for at least three different concentrations and the IC50 value evaluated from the dose response curve. […] CPM(control) is in units of counts per minute and is a number expressing the amount of [^3H]thymidine incorporated onto the DNA when cells are grown in the absence of test compound as measured by liquid scintillation counting.

COLO205 = assay: Inhibition of cancer cell growth as measured by cell number, COLO205; format: cell-based; settings: Homo sapiens, COLO 205, 48 h, read-out: IC50 COLO205
CACO2 = assay: Inhibition of cancer cell growth as measured by cell number, CACO2; format: cell-based; settings: Homo sapiens, Caco-2, 48 h, read-out: IC50 CACO2
A431 [5] = assay: Inhibition of cancer cell growth as measured by cell number, A431; format: cell-based, human; settings: Homo sapiens, A-431, 48 h, read-out: IC50 A431, cell number, Sulforhodamine B, 48 hours exposure;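 also: human A431 line, picked because it overexpresses epidermal growth factor receptor (EGFR)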
From the text: as §1

[6] = 10 mg/kg/dose IP on days 1 through 10
[7] = 50 mg/kg/dose IP on days 1 through 10
[8] = 100 mg/kg/dose IP on days 1 through 10

CCOc1cc2ncc(C#N)c(Nc3cccc(Br)c3)c2cc1OCC [Example 47, 4-[(3-Bromophenyl)amino]6,7-diethoxy-3-quinolinecarbonitrile]
IC50 (SW620; Table 4): 0.0672 µg/mL (≈ 0.163 µM) | IC50 (SW620; Table 8): < 0.01 µg/mL | pIC50 (A431 [1]): 5.82 | IC50 (HL60): 0.0625 µg/mL (≈ 0.152 µM) | pIC50 [2]: 6.89 | IC50 (CCL228): 0.0715 µg/mL (≈ 0.174 µM) | IC50 (MIP): 0.0693 µg/mL (≈ 0.168 µM) | %T/C Day 7 [3, 6]: 69% | %T/C Day 14 [3, 6]: 74% | %T/C Day 21 [3, 6]: 116% | %T/C Day 28 [3, 6]: 136% | S/T = No. Survivors/No. Treated [3, 6]: 5/5 | %T/C Day 7 [3, 7]: 44 (d) % | %T/C Day 14 [3, 7]: 55 (d) % | %T/C Day 21 [3, 7]: 87% | %T/C Day 28 [3, 7]: 102% | S/T = No. Survivors/No. Treated [3, 7]: 5/5 | tumor growth was inhibited ([3]; day 7): 66% | tumor growth was inhibited ([3]; day 14): 63% | tumor growth was inhibited ([3]; day 28): 57% | %T/C Day 7 [3, 8]: 34(d) % | %T/C Day 14 [3, 8]: 37(d) % | %T/C Day 21 [3, 8]: 51% | %T/C Day 28 [3, 8]: 43% | S/T = No. Survivors/No. Treated [3, 8]: 5/5 | pIC50 [4]: 5.10 and 5.30 | IC50 (A2780DDP): 0.0645 µg/mL (≈ 0.157 µM) | IC50 (A27805): 0.053 µg/mL (≈ 0.129 µM) | IC50 (HTB161): 0.00395 µg/mL (≈ 0.00957 µM) | IC50 (NEC): 0.0671 µg/mL (≈ 0.163 µM) | IC50 (CX1): 0.0618 µg/mL (≈ 0.15 µM) | IC50 (MCF7; Table 5): 0.072 µg/mL (≈ 0.175 µM) | IC50 (MCF7; Table 8): 0.02 µg/mL (≈ 0.0485 µM) | IC50 (A549): 0.0679 µg/mL (≈ 0.165 µM) | IC50 (LX1): 0.076 µg/mL (≈ 0.184 µM) | IC50 (SKBR3; Table 7): 0.0467 µg/mL (≈ 0.113 µM) | IC50 (SKBR3; Table 8): < 0.01 µg/mL | IC50 (LS174T): 0.0468 µg/mL (≈ 0.114 µM) | IC50 (SW948): 0.0683 µg/mL (≈ 0.166 µM) | IC50 (LNCAP): 0.0337 µg/mL (≈ 0.0816 µM) | IC50 (CCRF-CFM): 0.068 µg/mL (≈ 0.165 µM) | IC50 (T47D): 0.0467 µg/mL (≈ 0.113 µM) | IC50 (HCT15): 0.0395 µg/mL (≈ 0.0959 µM) | IC50 (LOX; Table 6): 0.0605 µg/mL (≈ 0.147 µM) | IC50 (LOX; Table 8): 0.03 µg/mL (≈ 0.0728 µM) | IC50 (DU145): 0.068 µg/mL (≈ 0.165 µM) | pIC50 (NHEK): 7.52 | IC50 (COLO205): 0.0757 µg/mL (≈ 0.184 µM) | IC50 (CACO2): 0.0701 µg/mL (≈ 0.17 µM) | IC50 (A431 [5]; Table 6): 0.0446 µg/mL (≈ 0.108 µM) | IC50 (A431 [5]; Table 8): < 0.01 µg/mL
